Data: ChEMBL document CHEMBL1126402, “The design and biological evaluation of a series of 3-hydroxy-3-methylglutaryl coenzyme a (HMG-CoA) reductase inhibitors related to dihydromevinolin” (Bioorg Med Chem Lett, 1992)
Calls of active or inactive are those of the source. The rule behind the calls is not given here.

Legend:
[1] = Selectivity in vivo against rat assay; NS - no significant difference between organs; type: functional, organism-based
[2] = target: T1, 3-hydroxy-3-methylglutaryl-coenzyme A reductase (Rattus norvegicus, UniProt P51639); assay: Inhibition of microsomal rat liver HMG-CoA reductase
T1 sequence (P51639 whole entry): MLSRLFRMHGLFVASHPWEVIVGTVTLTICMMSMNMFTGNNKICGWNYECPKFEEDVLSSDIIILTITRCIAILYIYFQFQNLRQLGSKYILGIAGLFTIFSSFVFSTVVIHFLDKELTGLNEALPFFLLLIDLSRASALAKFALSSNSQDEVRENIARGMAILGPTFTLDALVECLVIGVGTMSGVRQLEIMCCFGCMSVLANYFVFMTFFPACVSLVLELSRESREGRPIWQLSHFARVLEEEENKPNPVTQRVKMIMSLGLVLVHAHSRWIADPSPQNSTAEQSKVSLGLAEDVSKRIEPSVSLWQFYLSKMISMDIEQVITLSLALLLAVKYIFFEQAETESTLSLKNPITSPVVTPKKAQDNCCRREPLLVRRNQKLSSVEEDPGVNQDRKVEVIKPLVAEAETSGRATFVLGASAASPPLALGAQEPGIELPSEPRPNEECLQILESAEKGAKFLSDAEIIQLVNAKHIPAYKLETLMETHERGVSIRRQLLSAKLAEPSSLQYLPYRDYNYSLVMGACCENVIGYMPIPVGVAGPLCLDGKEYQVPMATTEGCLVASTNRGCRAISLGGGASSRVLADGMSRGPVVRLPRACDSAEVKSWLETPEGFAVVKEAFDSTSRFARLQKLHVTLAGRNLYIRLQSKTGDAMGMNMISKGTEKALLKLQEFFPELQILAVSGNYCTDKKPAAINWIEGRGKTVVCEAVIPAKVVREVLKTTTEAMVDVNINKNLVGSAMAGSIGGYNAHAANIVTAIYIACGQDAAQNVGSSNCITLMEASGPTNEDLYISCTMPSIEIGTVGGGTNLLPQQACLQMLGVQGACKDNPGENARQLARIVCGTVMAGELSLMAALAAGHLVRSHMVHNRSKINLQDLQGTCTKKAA

[3] = Selectivity in vivo against rat assay; A - greater inhibition in liver than in spleen, testes, kidney; type: functional, organism-based

SMILES | Selectivity [1] | IC50 [2] [nM] | Selectivity [3]
CCC/C(C)=C/[C@@H]1C[C@H](OC(=O)[C@@H](C)CC)[C@@H]2[C@@H](CC[C@@H]3C[C@@H](O)CC(=O)O3)[C@@H](C)C=C[C@H]2C1 | inactive | 20 | –
CCC(C)C(=O)O[C@H]1C[C@@H](C)C[C@@H]2C=C[C@H](C)[C@H](CCC(=O)C[C@@H](O)CC(=O)OC)[C@@H]12 (stereo partly specified) | – | 80 | –
CC/C=C/[C@@H]1C[C@H](OC(=O)C(C)(C)CC)[C@@H]2[C@@H](CC[C@@H]3C[C@@H](O)CC(=O)O3)[C@@H](C)C=C[C@H]2C1 | – | 15 | –
CC[C@H](C)C(=O)O[C@H]1C[C@@H](C)C=C2C=C[C@H](C)[C@H](CC[C@@H]3C[C@@H](O)CC(=O)O3)[C@H]21 [LOVASTATIN] | – | 11 | A
C/C=C/[C@@H]1C[C@H](OC(=O)C(C)(C)CC)[C@@H]2[C@@H](/C=C/[C@@H]3C[C@@H](O)CC(=O)O3)[C@@H](C)C=C[C@H]2C1 | – | 100 | –
CCC/C(C)=C/[C@@H]1C[C@H](OC(=O)C(C)(C)CC)[C@@H]2[C@@H](CC[C@@H]3C[C@@H](O)CC(=O)O3)[C@@H](C)C=C[C@H]2C1 | inactive | 8 | –
CCC(C)C(=O)O[C@H]1C[C@@H](C)C[C@@H]2C=CC[C@H](CC[C@@H]3C[C@@H](O)CC(=O)O3)[C@@H]12 (stereo partly specified) | – | 1500 | –
C/C=C\[C@@H]1C[C@H](OC(C)=O)[C@@H]2[C@@H](CC[C@@H]3C[C@@H](O)CC(=O)O3)[C@@H](C)C=C[C@H]2C1 | – | 1500 | –
